Assay results published in patent US20050255595A1, “Genetically modified non-human mammal cells, procedure for their production and use in toxicity tests” (priority 2002, published 2005).

Key:
MMH/GH5 cells = test: cellular survival of MMH/GH5, Trypan Blue exclusion; format: cell-based, mice; design: % cellular survival, MMHGH/5 1 + 24 h / % cellular survival, MMHGH/5 5 + 24 / % vitality of the cells, MMH/GH 1 + 24 h / % vitality of the cells, MMH/GH 5 + 24 h: unit of the concentration uncertain; settings: for % cellular survival, MMHGH/5 1 + 24 h / % vitality of the cells, MMH/GH 1 + 24 h: 1 h treatment + 24 h normal medium; for % cellular survival, MMHGH/5 5 + 24 / % vitality of the cells, MMH/GH 5 + 24 h: 5 h treatment + 24 h normal medium
Description: (§1) This different behaviour is explained by the greater sensitivity to the toxicant of the PHGH with respect to the MMH/GH5 as shown by analysis of the cellular vitality performed with the Trypan Blue method (FIG. 1, graph B). […] Therefore the greater resistance of the cells MMH/GH/5 to the toxicants constitutes another evident advantage as it permits the exclusion of false negatives in which the non-release of hGH, due to cellular death, is interpreted as non-toxicity of the compound. When the supernatant is collected after 5 hours of treatment followed by 24 hours of culture with normal medium (FIG. 1 graph C) the PHGHs respond, at the lowest concentrations of the two toxicants, with high levels of secretion of hGH and, at the highest concentrations, with low levels of secretion of hGH (lower cellular survival, graph D).
(§2) In table 3 the cellular survival percentage was determined with the Trypan Blue exclusion method. […]
(§3) For treatment, the two types of cells were treated with different concentrations of the compounds for 1 or 5 hours and then with normal medium for a further 24 hours. The effects of the treatment were assessed as described previously for the inorganic toxicants.

[1] = system: single transgenic HPS70/hGH primary hepatocytes (PHGH); test: toxicity test, hGH secretion by primary transgenic hepatocytes (PHGH); format: cell-based, mice
Description: On the basis of the results illustrated, for the further analyses, clone no. […] The response to the toxic stress of the clone MMH/GH5 was then compared with the one obtained in single transgenic HPS70/hGH primary hepatocytes (PHGH). A representative sample of the cell line derived from said clone MMH/GH5 was deposited in accordance with and for the purposes of the Treaty of Budapest on the international recognition of deposit of micro-organisms for the purposes of the patents procedure with the AID “Centro di Biotecnologie Avanzate (CBA), Interlab Cell Line Collection (ICLC)” Servizio Biotecnologie, Largo R. Benzi, 10, 16132 Genova, Italy, on Jul. 30, 2002, where it was given identification number PD 02007.
as §2, §3

[2] = system: primary hepatocytes (PHGH); test: cellular survival of PHGH, Trypan Blue exclusion; format: cell-based, mice; design: % cellular survival, PHGH 1 + 24 h / % cellular survival, PHGH 5 + 24 / % vitality of the cells, PHGH 1 + 24 h / % vitality of the cells, PHGH 5 + 24 h: unit of the concentration uncertain; settings: for % cellular survival, PHGH 1 + 24 h / % vitality of the cells, PHGH 1 + 24 h: 1 h treatment + 24 h normal medium; for % cellular survival, PHGH 5 + 24 / % vitality of the cells, PHGH 5 + 24 h: 5 h treatment + 24 h normal medium
Description: as §1, §2, §3

[3] = 0.5 (unit uncertain), Trypan Blue
[4] = 1 (unit uncertain), Trypan Blue
[5] = 10 (unit uncertain), Trypan Blue
[6] = 50 (unit uncertain), Trypan Blue (Table 4)
[7] = 5 (unit uncertain), Trypan Blue

Row | Structure (SMILES) | % cellular survival, MMHGH/5 1 + 24 h (MMH/GH5 cells; [3]) | % cellular survival, MMHGH/5 5 + 24 (MMH/GH5 cells; [3]) | % cellular survival, MMHGH/5 1 + 24 h (MMH/GH5 cells; [4]) | % cellular survival, MMHGH/5 5 + 24 (MMH/GH5 cells; [4]) | % cellular survival, PHGH 1 + 24 h [2, 3] | % cellular survival, PHGH 5 + 24 [2, 3] | % cellular survival, PHGH 1 + 24 h [2, 4] | % cellular survival, PHGH 5 + 24 [2, 4] | % vitality of the cells, MMH/GH 1 + 24 h (MMH/GH5 cells; [6]) | % vitality of the cells, MMH/GH 5 + 24 h (MMH/GH5 cells; [6]) | % vitality of the cells, PHGH 1 + 24 h [2, 6] | % vitality of the cells, PHGH 5 + 24 h [2, 6] | also measured
1 | C=CC(O)CCCCC (centres unmarked) [1-Oct, 1-octene-3-ol] | 90% | 50% | 70% | 20% | 90% | 60% | 50% | 20% |  |  |  |  | effect of the treatment (hGH secretion) ([1]; PHGH versus MMH/GH, at the end of the treatment): can be measured only in PHGH; cellular survival ([2]; PHGH, words, Table 3): reduced cellular survival
2 | O=C1C=CCC1 [2-Cycl, 2-cyclopentene-1-one] | 90% | 90% | 90% | 90% | 90% | 90% | 80% | 60% |  |  |  |  | response (hGH secretion) in MMH/GH5 (MMH/GH5 cells (Clone 5); words, Table 3): rapid response
3 | c1ccc2c(c1)cc1ccc3cccc4ccc2c1c34 [BaP, Benzo(a)Pyrene] |  |  |  |  |  |  |  |  | 90% | 90% | 50% | 30% | % vitality of the cells, MMH/GH 1 + 24 h (MMH/GH5 cells; [5]): 90%; % vitality of the cells, MMH/GH 5 + 24 h (MMH/GH5 cells; [5]): 90%; stimulation of the promoter HSP70 in the PHGHs ([1]; words, Table 4): does not stimulate; % vitality of the cells, PHGH 1 + 24 h [2, 5]: 50%; % vitality of the cells, PHGH 5 + 24 h [2, 5]: 50%
4 | O=[N+]([O-])c1ccc(Cl)c([N+](=O)[O-])c1 [CDNB, 1-Chloro-2,4-DiNitro-Benzene] |  |  |  |  |  |  |  |  | 70% | 20% | 5% | 5% | % vitality of the cells, MMH/GH 1 + 24 h (MMH/GH5 cells; [7]): 80%; % vitality of the cells, MMH/GH 5 + 24 h (MMH/GH5 cells; [7]): 60%; toxicity on MMH/GH5 cells compared with PHGHs (MMH/GH5 cells; words, data in table 4): less toxic; secretion of the hGH from the MMH/GH5 cells (MMH/GH5 cells (Clone 5); all the conditions tested): considerable secretion; % vitality of the cells, PHGH 1 + 24 h [2, 7]: 80%; % vitality of the cells, PHGH 5 + 24 h [2, 7]: 40%
